Patent US20240279232A1, “USE OF SUBSTITUTED 5-(4-METHYL-6-PHENYL-4H-BENZO[F]IMIDAZO[1,5-A][1,4] DIAZEPIN-3-YL)-1,2,4-O[…] THE TREATMENT OF INFLAMMATORY CONDITIONS” (priority 2021, published 2024)

Legend:
[1] = molecular target: H3 (Homo sapiens, UniProt Q9Y5N1); assay: PDSP primary binding H3; details: PDSP primary screening
Description: (§1) Because reduction of NO could not be reversed by GABAAR antagonists, the possible binding of MP-IV-010 to other cellular receptors was evaluated in collaboration with the NIMH Psychoactive Drug Screening Program.
(§2) Psychoactive Drug Screening Program. Detailed protocols for the primary and secondary radioligand binding assays can be found in the National Institute of Mental Health's Psychoactive Drug Screening Program (NIMH PDSP) Assay Protocol Book. Briefly, primary and secondary radioligand binding assays are carried out in a final of volume of 125 μL per well in appropriate binding buffer. The radioactive ligand concentration is close to the Kd. Total binding and nonspecific binding are determined in the absence and presence of 10 μM of appropriate reference compound, respectively. In brief, plates are usually incubated at room temperature and in the dark for 90 min. Reactions are stopped by vacuum filtration onto 0.3% polyethyleneimine (PEI) soaked 96-well filter mats using a 96-well Filtermate harvester, followed by three washes with cold PBS buffer. Scintillation cocktail is then melted onto the microwave-dried filters on a hot plate and radioactivity counted in a Microbeta counter. The data (n=6) were analyzed by nonlinear regression.

[2] = molecular target: 5-HT1A (Homo sapiens, UniProt P08908); assay: PDSP primary binding 5-HT1A; details: PDSP primary screening
Description: as §1, §2

[3] = molecular target: Alpha2B (Homo sapiens, UniProt P18089); assay: PDSP primary binding Alpha2B; details: PDSP primary screening
Description: as §1, §2

[4] = molecular target: D1 (Homo sapiens, UniProt P21728); assay: PDSP primary binding D1; details: PDSP primary screening
Description: as §1, §2

[5] = test system: Calcium Channel; assay: PDSP primary binding Calcium Channel; details: PDSP primary screening
Description: as §1, §2

[6] = molecular target: M3 (Homo sapiens, UniProt P20309); assay: PDSP primary binding M3; details: PDSP primary screening
Description: as §1, §2

[7] = molecular target: NET (Homo sapiens, UniProt P23975); assay: PDSP primary binding NET; details: PDSP primary screening
Description: as §1, §2

[8] = molecular target: D3 (Homo sapiens, UniProt P35462); assay: PDSP primary binding D3; details: PDSP primary screening
Description: as §1, §2

[9] = molecular target: M1 (Homo sapiens, UniProt P11229); assay: PDSP primary binding M1; details: PDSP primary screening
Description: as §1, §2

[10] = molecular target: Beta1 (Homo sapiens, UniProt P08588); assay: PDSP primary binding Beta1; details: PDSP primary screening
Description: as §1, §2

[11] = molecular target: D4 (Homo sapiens, UniProt P21917); assay: PDSP primary binding D4; details: PDSP primary screening
Description: as §1, §2

[12] = molecular target: T1, iNOS (Mus musculus, UniProt P29477); assay: iNOS activity of extracts of activated microglia incubated with compound; assay type: biochemical; details: 50 μM, extracts incubated 2 h
T1 construct: endogenous in cells
Description: Cellular proteins were isolated from mouse microglia and mouse microglia activated for 24 hours with IFNγ/LPS. Cellular proteins from activated microglia were treated for 2 hours with 50 μM MP-IV-010 and iNOS activity was determined for all protein extracts with an Abcam INOS Activity Assay kit (n=3).
Next, the possible involvement of INOS in MP-IV-010 (and structurally similar compound GL-IV-03) mediated reduction of NO in activated microglia was investigated. INOS activity was measured in activated microglia after a 24-hour treatment with MP-IV-010. Second, proteins were harvested from microglia activated for 24 hours with LPS/INFγ, followed by a 2-hour treatment with MP-IV-010 before measuring iNOS activity. Finally, mRNA and protein levels were quantified for GL-IV-03 treated activated microglia to examine the transcriptional regulation of iNOS.
iNOS activity assay. Mouse microglia were activated with 50 ng/mL LPS (Invivogen, NC9836) and 150 U/mL IFNγ (R&D Systems, 485MI100), and treated with compounds of interest in 6 well plates for 2 or 24 hours. […] Protein was collected, quantified, and analyzed with the Nitric Oxide Synthase Activity kit (Abcam, ab211083) with minor alterations to the established protocol. […] Absorbance at 540 nm was measured using a TECAN Infinite M1000 plate reader. Significance (n=3) was analyzed by ANOVA.

[13] = molecular target: 5-HT1E (Homo sapiens, UniProt P28566); assay: PDSP primary binding 5-HT1E; details: PDSP primary screening
Description: as §1, §2

[14] = molecular target: 5-HT1B (Homo sapiens, UniProt P28222); assay: PDSP primary binding 5-HT1B; details: PDSP primary screening
Description: as §1, §2

[15] = molecular target: 5-HT2A (Homo sapiens, UniProt P28223); assay: PDSP primary binding 5-HT2A; details: PDSP primary screening
Description: as §1, §2

[16] = molecular target: 5-HT7 (Homo sapiens, UniProt P34969); assay: PDSP primary binding 5-HT7; details: PDSP primary screening
Description: as §1, §2

[17] = molecular target: Alpha1A (Homo sapiens, UniProt P35348); assay: PDSP primary binding Alpha1A; details: PDSP primary screening
Description: as §1, §2

[18] = molecular target: PBR (Rattus norvegicus, UniProt P16257); assay: PDSP primary binding PBR; details: PDSP primary screening
Description: as §1, §2

[19] = molecular target: 5-HT5A (Homo sapiens, UniProt P47898); assay: PDSP primary binding 5-HT5A; details: PDSP primary screening
Description: as §1, §2

[20] = molecular target: H1 (Homo sapiens, UniProt P35367); assay: PDSP primary binding H1; details: PDSP primary screening
Description: as §1, §2

[21] = molecular target: 5-HT6 (Homo sapiens, UniProt P50406); assay: PDSP primary binding 5-HT6; details: PDSP primary screening
Description: as §1, §2

[22] = test system: GABAA; assay: PDSP primary binding GABAA; details: PDSP primary screening
Description: as §1, §2

[23] = molecular target: Alpha1B (Homo sapiens, UniProt P35368); assay: PDSP primary binding Alpha1B; details: PDSP primary screening
Description: as §1, §2

[24] = molecular target: M4 (Homo sapiens, UniProt P08173); assay: PDSP primary binding M4; details: PDSP primary screening
Description: as §1, §2

[25] = molecular target: 5-HT2B (Homo sapiens, UniProt P41595); assay: PDSP primary binding 5-HT2B; details: PDSP primary screening
Description: as §1, §2

[26] = molecular target: 5-HT3 (Homo sapiens, UniProt P46098); assay: PDSP primary binding 5-HT3; details: PDSP primary screening
Description: as §1, §2

[27] = molecular target: M2 (Homo sapiens, UniProt P08172); assay: PDSP primary binding M2; details: PDSP primary screening
Description: as §1, §2

`C#Cc1ccc2c(c1)C(c1ccccc1F)=N[C@H](C)c1c(-c3nc(C(C)C)no3)ncn1-2` [MP-IV-010, (R)-5-(8-ethynyl-6-(2-fluorophenyl)-4-methyl-4H-benzo[f]imidazo[1,5-a][1,4]diazepin-3-yl)-3-isopropyl-1,2,4-oxadiazole] was tested, and the “Percent Competition H3” value [1] was −18%, the “Percent Competition 5-HT1A” value [2] was 19% and the “Percent Competition Alpha2B” value [3] was 29%. The “Percent Competition D1” value [4] was 28%, the “Percent Competition Calcium Channel” value [5] was 15% and the “Percent Competition M3” value [6] was 0%. The “Percent Competition NET” value [7] was −2%, the “Percent Competition D3” value [8] was 15% and the “Percent Competition M1” value [9] was −11%. For the same molecule, the “Percent Competition Beta1” value [10] was 6%, the “Percent Competition D4” value [11] was 5% and the “iNOS activity of cellular extracts (direct inhibition)” value [12] was “did not differ from the vehicle treated cell extract”. For the same molecule, the “Percent Competition 5-HT1E” value [13] was −7%, the “Percent Competition 5-HT1B” value [14] was 29% and the “Percent Competition 5-HT2A” value [15] was −1%. For the same molecule, the “Percent Competition 5-HT7” value [16] was −5%, the “Percent Competition Alpha1A” value [17] was 2% and the “Percent Competition PBR” value [18] was 28%. The “Percent Competition 5-HT5A” value [19] was 11%, the “Percent Competition H1” value [20] was 19% and the “Percent Competition 5-HT6” value [21] was 21%. For the same molecule, the “Percent Competition GABAA” value [22] was −8%, the “Percent Competition Alpha1B” value [23] was 15% and the “Percent Competition M4” value [24] was 8%. For the same molecule, the “Percent Competition 5-HT2B” value [25] was 0%, the “Percent Competition 5-HT3” value [26] was 13% and the “Percent Competition M2” value [27] was 10%.
